Converted amounts (≈) assume the structure as drawn. Values belong to the molecule of their own block, whether it stands above or below them.
What was measured:
[1] = test system: T. mentagrophytes (TIMM 1189); assay: Antifungal activities (in vivo), guinea pig skin infection, retro-culture; set-up: species or system Hartley white female guinea pigs; settings: guinea pigs, 1% test compound in white petrolatum applied once a day for 6 days from fifth day of inoculation
Text: Hartley white female guinea pigs were used in this test. The back hair were depilated to form a round area having a diameter of 2 cm. 1×10^8microconidia of T. mentagrophytes (TIMM 1189) were inoculated therein for infection. From the fifth day of the inoculation, a composition containing 1% test compound (base: white petrolatum) was applied once a day for 6 consecutive days. Thereafter, the animals were left for 1 day, and slaughtered while removing the blood. The suffered skin was taken, cut and subjected to the retro-culture. The negative ratio of the strain was measured.

Candida sp. = assay: Antifungal activities (in vitro), MIC on Sabouraud's agar medium; type: cell-based; settings: 48 h, 37° C., growth evaluated two days after
Description: (§1) A plate of a series of diluted specimen was prepared under steriled conditions using Sabouraud's agar medium (glucose 2%, peptone 1%, agar 1.5%), to which 1 μl of each of the test fungus solutions was inoculated by using a quantitative platinum loop.

Trichophyton sp. = assay: as above; type: cell-based; settings: 168 h, 27° C., growth evaluated seven days after
Description: as §1

C. albicans (TIMM 0144) = assay: Direct cell-membrane damaging (potassium ion leakage); type: cell-based; settings: test compound 40 μg/ml, 15 minutes, atomic absorption spectrometry
Description: Direct cell-membrane damaging, which is one of the characteristic actions of azole antifungal drugs, was evaluated.
As a test strain, C. albicans (TIMM 0144) was used. Fresh cultures of C. albicans (TIMM 0144) were washed to make a deionized aqueous solution containing the same at a concentration of 1×10^8 /ml. In the presence of a test compound at a concentration of 40 μg/ml, potassium ion leakage concentration was measured 15 minutes after by way of atomic absorption spectrometry to evaluate the direct cell-membrane damaging.

Acute toxicity = settings: mouse, in vivo, po; dosed orally on mice

SMILES: Clc1ccccc1C(c1ccccc1)(c1ccccc1)n1ccnc1 [Clotrimazole, clotrimazole, reference compound]
Negative ratio (%) [1]: 24%

SMILES: CC(C)=CCC/C(C)=C/COC(Cn1ccnc1)c1ccc(Cl)cc1Cl (centres unmarked) [Compound 1, 1-[2-(2,4-dichlorophenyl)-2-((E)-3,7-dimethylocta-2,6-dienyloxy)ethyl]-1H-imidazole]
MIC (Candida sp.): 40 µg/mL (≈ 102 µM)
MIC (Trichophyton sp.): 5 to 10 µg/mL (≈ 12.7 to 25.4 µM)
Negative ratio (%) [1]: 95%
Potassium ion leakage rate (%) (C. albicans (TIMM 0144)): 81%
LD50 (Acute toxicity): ≥ 1000 mg/kg

SMILES: CC(C)=CCC/C(C)=C/CC/C(C)=C/COC(Cn1ccnc1)c1ccc(Cl)cc1Cl (centres unmarked) [Compound 2, 1-[2-(2,4-dichlorophenyl)-2-((E,E)-3,7,11-trimethyldodeca-2,6,10-trienyloxy)ethyl]-1H-imidazole]
MIC (Candida sp.): > 80 µg/mL
MIC (Trichophyton sp.): 40 to 80 µg/mL (≈ 86.7 to 173 µM)
Potassium ion leakage rate (%) (C. albicans (TIMM 0144)): 55%

SMILES: CC(C)=CCC/C(C)=C/COC(Cn1ccnc1)c1ccccc1[N+](=O)[O-] (centres unmarked) [Compound 3, 1-[2-((E)-3,7-dimethylocta-2,6-dienyloxy)-2-(2-nitrophenyl)ethyl]-1H-imadazole]
MIC (Candida sp.): 20 to 40 µg/mL (≈ 54.1 to 108 µM)
MIC (Trichophyton sp.): 0.16 to 5 µg/mL (≈ 0.433 to 13.5 µM)

SMILES: CC(C)=CCC/C(C)=C/COC(Cn1ccnc1)c1ccccc1C(F)(F)F (centres unmarked) [Compound 4, 1-[2-((E)-3,7-dimethylocta-2,6-dienyloxy)-2-(2-trifluoromethylphenyl)ethyl]-1H-imidazole]
MIC (Candida sp.): 20 µg/mL (≈ 51 µM)
MIC (Trichophyton sp.): 1.25 to 20 µg/mL (≈ 3.18 to 51 µM)

SMILES: Clc1ccc(COC(Cn2ccnc2)c2ccc(Cl)cc2Cl)c(Cl)c1 (centres unmarked) [Miconazole, miconazole, reference compound]
Negative ratio (%) [1]: 27%

The next lines start with results.

MIC (Candida sp.): 20 µg/mL (≈ 61.6 µM)
MIC (Trichophyton sp.): 5 µg/mL (≈ 15.4 µM)
SMILES: CC(C)=CCC/C(C)=C/COC(Cn1ccnc1)c1ccccc1 (centres unmarked) [Compound 5, 1-[2-((E)-3,7-dimethylocta-2,6-dienyloxy)-2-phenylethyl]-1H-imidazole]

MIC (Candida sp.): 20 to 40 µg/mL (≈ 50.8 to 102 µM)
MIC (Trichophyton sp.): 5 to 10 µg/mL (≈ 12.7 to 25.4 µM)
SMILES: CC(C)=CCC/C(C)=C\COC(Cn1ccnc1)c1ccc(Cl)cc1Cl (centres unmarked) [Compound 6, 1-[2-(2,4-dichlorophenyl)-2-((Z)-3,7-dimethylocta-2,6-dienyloxy)ethyl]-1H-imidazole]
Negative ratio (%) [1]: 89%
Potassium ion leakage rate (%) (C. albicans (TIMM 0144)): 74%

MIC (Candida sp.): > 80 µg/mL
MIC (Trichophyton sp.): > 80 µg/mL
SMILES: CC(C)=CCC/C(C)=C/COC(Cn1cncn1)c1ccc(Br)cc1 (centres unmarked) [Compound 7, 1-[2-(4-bromophenyl)-2-((E)-3,7-dimethylocta-2,6-dienyloxy)ethyl]-1H-triazole]

MIC (Candida sp.): 40 µg/mL (≈ 102 µM)
MIC (Trichophyton sp.): 10 to 20 µg/mL (≈ 25.5 to 51 µM)
SMILES: CC(C)=CCC/C(C)=C/CNC(Cn1ccnc1)c1ccc(Cl)cc1Cl (centres unmarked) [Compound 8, 1-[2-(2,4-dichlorophenyl)-2-((E)-3,7-dimethylocta-2,6-dienylamino)ethyl]-1H-imidazole]
Negative ratio (%) [1]: 46%
Potassium ion leakage rate (%) (C. albicans (TIMM 0144)): 65%

MIC (Candida sp.): 40 µg/mL (≈ 98.4 µM)
MIC (Trichophyton sp.): 10 to 20 µg/mL (≈ 24.6 to 49.2 µM)
SMILES: CC(C)=CCC/C(C)=C/CN(C)C(Cn1ccnc1)c1ccc(Cl)cc1Cl (centres unmarked) [Compound 9, 1-[2-(2,4-dichlorophenyl)-2-{N-((E)-3,7-dimethylocta-2,6-dienyl)-N-methylamino}ethyl]-1H-imidazole]
Negative ratio (%) [1]: 34%

MIC (Candida sp.): > 80 µg/mL
MIC (Trichophyton sp.): 20 µg/mL (≈ 48.8 µM)
SMILES: CC(C)=CCC/C(C)=C/CSC(Cn1ccnc1)c1ccc(Cl)cc1Cl (centres unmarked) [Compound 10, 1-[2-(2,4-dichlorophenyl)-2-((E)-3,7-dimethylocta-2,6-dienylthio)ethyl]-1H-imidazole]
Negative ratio (%) [1]: 37%
Potassium ion leakage rate (%) (C. albicans (TIMM 0144)): 47%

MIC (Candida sp.): 40 µg/mL (≈ 98.4 µM)
MIC (Trichophyton sp.): 5 to 20 µg/mL (≈ 12.3 to 49.2 µM)
SMILES: CC(C)=CCC/C(C)=C/CO/N=C(\Cn1ccnc1)c1ccc(Cl)cc1Cl [Compound 11, (Z)-1-(2,4-dichlorophenyl)-2-(1H-imidazole-1-yl)-O-((E)-3,7-dimethylocta-2,6-dienyl) ethanonoxime]

Source: patent US5183824A, “Azole derivatives and antifungal drugs containing the same as an active component” (Kao Corporation, priority 1989, dated 1993)
